Structures can show the parent of a compound that is named as a salt. Bounds are passed on as bounds.

The subject of one assay is amyloid β production in transfected H4 (human neuroglioma) cells stably expressing APP constructs. As to the kind of experiment: In vitro cell-based assay of inhibitors of amyloid β production (ELISA). To be noted: Homo sapiens, 16 h, Table B; transfected H4 cells stably expressing APP; approximately 16 hours incubation; amyloid β in medium by ELISA; read-out: ACTIVITY (inhibitory concentration IC50, inhibition of amyloid β production). An outline of the steps: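 Transfected H4 cells stably expressing wild-type or variant APP were exposed to compounds (initial screen 10-100 μM) for about 16 h. Secreted Aβ in the medium was quantified by sandwich ELISA (C-terminal-specific monoclonal capture, N-terminal-specific polyclonal detection) against an Aβ standard curve; dose-response runs followed for actives.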
In general terms: An ELISA detects its analyte on a solid surface through an enzyme-linked reagent.
Consider `C=C(C)C(=O)CCCc1cc(F)ccc1[C@@H](C)N(c1cc(F)ccc1F)S(=O)(=O)c1ccc(Cl)cc1` [Example 207, 4-chloro-N-(2,5-difluorophenyl)-N-{(1R)-1-[4-fluoro-2-(5-methyl-4-oxo-5-hexenyl)phenyl]ethyl}benzenesulfonamide], for which the IC50 was in the range of 25 to 50 nM.

Consider `CCN(CC)C(=O)CCCc1cc(F)ccc1[C@@H](C)N(c1cc(F)ccc1F)S(=O)(=O)c1ccc(Cl)cc1` [Example 223, 4-[2-((1R)-1-{[(4-chlorophenyl)sulfonyl]-2,5-difluoroanilino}ethyl)-5-fluorophenyl]-N,N-diethylbutanamide], for which the IC50 is 25 to 50 nM.

The same assay, now with this note: Homo sapiens, 16 h, transfected H4 cells stably expressing APP constructs; approximately 16 hours incubation; amyloid β in medium by ELISA; read-out: ACTIVITY (IC50, inhibition of amyloid β production).
As for `C[C@H](CCCNC(=O)C(C)(C)C)N(c1cc(Cl)ccc1Cl)S(=O)(=O)c1ccc(Cl)cc1` (stereo in doubt) [Example 1137, 4-chloro-N-(2,5-dichlorophenyl)-N-[4-[[(1,1-dimethylethyl)carbonyl]amino]-1-methylbutyl]benzenesulfonamide], the IC50 was 100 to 500 nM.

Turning to `CC([C@@H]1CCCN1C(=O)OC(C)(C)C)N(c1cc(Cl)ccc1Cl)S(=O)(=O)c1ccc(Cl)cc1` (stereo in doubt) [Example 1255, 4-chloro-N-(2,5-dichlorophenyl)-N-[1-(S)-[1-[(1,1-dimethylethoxy)carbonyl]pyrrolidin-2-yl]ethyl]benzenesulfonamide], the IC50 was over 500 nM.

The same assay, now with this note: Table B; transfected H4 cells stably expressing APP; approximately 16 hours incubation; amyloid β in medium by ELISA; read-out: ACTIVITY (inhibitory concentration IC50, inhibition of amyloid β production).
As for `CC(C)(C)[Si](C)(C)OCCCCCO` [Example 1, (S)-5-[[dimethyl(1,1-dimethylethyl)silyl]oxy]-1-pentanol], the IC50 is at most 25 nM.

As to `O=[N+]([O-])c1cc(Cl)ccc1COC1CCCCO1` (centres unmarked) [Example 2, 4-Chloro-2-nitro-1-[[(tetrahydro-2H-pyran-2-yl)oxy]methyl]benzene], the IC50 is at most 25 nM.

As to `Nc1cc(Cl)ccc1COC1CCCCO1` (centres unmarked) [Example 3, 5-Chloro-2-[[(tetrahydro-2H-pyran-2-yl)oxy]methyl]benzenamine], the IC50 is at most 25 nM.

On to `CC(=O)OCc1ccc(Cl)cc1N([C@H](C)CCCS(=O)(=O)O)S(=O)(=O)c1ccc(Cl)cc1` [Example 11], for which the IC50 is at most 25 nM.

In the case of `C[C@H](CCCS(=O)(=O)Cl)N(c1cc(Cl)ccc1CO)S(=O)(=O)c1ccc(Cl)cc1` [Example 12], the IC50 was at most 25 nM.

On to `C[C@H](CCCS(=O)(=O)Cl)N(c1cc(Cl)ccc1Cl)S(=O)(=O)c1ccc(Cl)cc1` [Example 18], for which the IC50 is at most 25 nM.

For `C[C@H](O)CO[Si](C)(C)C(C)(C)C` [Example 21], the IC50 was at most 25 nM.

For `C[C@H](O)CCOC(c1ccccc1)(c1ccccc1)c1ccccc1` [Example 25, (S)-4-triphenylmethylyloxy-2-butanol], the IC50 is at most 25 nM.

On to `C[C@H](CCOC(c1ccccc1)(c1ccccc1)c1ccccc1)N(c1cc(Cl)ccc1Cl)S(=O)(=O)c1ccc(Cl)cc1` [Example 26, 4-Chloro-N-(2,5-dichlorophenyl]-N-[1(R)-methyl-(3-triphenylmethyloxy)-propyl]benezenesulfonamide], for which the IC50 was at most 25 nM.

As for `C[C@H](O)CCCC(=O)OC(C)(C)C` [Example 34, 1,1-Dimethylethyl (5S)-5-hydroxyhexanoate], the IC50 is at most 25 nM.

Consider `C[C@H](CCCC(=O)OC(C)(C)C)N(c1cc(Cl)ccc1Cl)S(=O)(=O)c1ccc(Cl)cc1` [Example 35, 1,1-dimethylethyl(5R)-5-[(2,5-dichlorophenyl)-[(4-chlorophenyl)sulfonyl]-amino]hexanoate], for which the IC50 was at most 25 nM.

With `C[C@H](CCCC(=O)O)N(c1cc(Cl)ccc1Cl)S(=O)(=O)c1ccc(Cl)cc1` [Example 36, (5R)-5-[(2,5-dichlorophenyl][(4-chlorophenyl)sulfonyl]-amino]hexanoic Acid], the IC50 is at most 25 nM.

`C[C@H](CCCS(=O)(=O)Cl)N(c1cc(Cl)ccc1F)S(=O)(=O)c1ccc(Cl)cc1` [Example 43, (4R)-4-[N-[5-chloro-2-fluorophenyl][(4-chlorophenyl)sulfonyl]amino]pentylsulfonyl Chloride]: the IC50 was at most 25 nM.

As for `c1cn(CCCNCC2CC2)cn1` [Example 58, N-cyclopropylmethyl-3-(1H)-imidazolylpropylamine], the IC50 was at most 25 nM.

In the case of `CS(=O)(=O)C[C@H]1CCCN1` [Example 68], the IC50 was at most 25 nM.

Consider `C[C@H](CCNc1c(NCC[C@@H](C)N(c2cc(F)ccc2F)S(=O)(=O)c2ccc(Cl)cc2)c(=O)c1=O)N(c1cc(F)ccc1F)S(=O)(=O)c1ccc(Cl)cc1` [Example 132, 4-Chloro-N-(2,5-difluorophenyl)-N-[3-[2-[4-chloro-N-(2,5-difluorophenyl)-N-[(3-amino)-1(R)-methylpropyl]benzenesulfonamide]-3,4-dioxo-1-cyclobutenyl]amine-1(R)-methylpropyl]benzenesulfonamide], for which the IC50 was at most 25 nM.

For the molecule `COC(=O)C[S+]([O-])C[C@@H](C)N(c1cc(Cl)ccc1Cl)S(=O)(=O)c1ccc(Cl)cc1` (stereo partly drawn) [Example 178, Methyl(5R)-5-[(2,5-dichlorophenyl)[(4-chlorophenyl)sulfonyl]amino]-3-thiohexanoate,3 Oxide], the IC50 was at most 25 nM.

In the case of `COC(=O)CSCC[C@@H](C)N(c1cc(Cl)ccc1Cl)S(=O)(=O)c1ccc(Cl)cc1` [Example 179, Methyl(6R)-6-[(2,5,dichlorophenyl)[(4-chlorophenyl)sulfonyl]amino]-3-thioheptanoate], the IC50 is at most 25 nM.

For the molecule `C[C@H](CCSCC(=O)O)N(c1cc(Cl)ccc1Cl)S(=O)(=O)c1ccc(Cl)cc1` [Example 180, (6R)-6-[(2,5-dichlorophenyl)[(4-chlorophenyl)sulfonyl]amino]-3-thioheptanoic Acid], the IC50 is at most 25 nM.

As to `C[C@H](CC[S+]([O-])CC(=O)O)N(c1cc(Cl)ccc1Cl)S(=O)(=O)c1ccc(Cl)cc1` (some centres unmarked) [Example 182], the IC50 is 25 to 50 nM.

Regarding `C[C@H](CCS(=O)(=O)CC(=O)O)N(c1cc(Cl)ccc1Cl)S(=O)(=O)c1ccc(Cl)cc1` [Example 183, (6R)-6-[(2,5-dichlorophenyl)[(4-chlorophenyl)sulfonyl]amino]-3-thioheptanoic Acid, 3,3 Dioxide], the IC50 lay in the range of 25 to 50 nM.

As for `O=S(=O)(c1ccc(Cl)cc1)N(Cc1cc(Cl)ccc1OCCCN1CCCCC1)c1ccccc1` [Example 230, 4-Chloro-N-{5-chloro-2-[3-(1-piperidinyl)propoxy]benzyl}-N-phenylbenzenesulfonamide Hydrochloride], the IC50 is 25 to 50 nM.

The same assay, now with this note: read-out: ACTIVITY (inhibitory concentration IC50, inhibition of amyloid β production).
For `O=S(=O)(c1ccc(Cl)cc1)N(Cc1cc(F)ccc1OCCCN1CCCCC1)c1cc(F)ccc1F` [Example 231, 4-Chloro-N-(2,5-difluorophenyl)-N-{5-fluoro-2-[3-(1-piperidinyl)propoxy]benzyl}benzenesulfonamide Hydrochloride], the IC50 fell in the range of 25 to 50 nM.

`Cc1ccc(OCCCN2CCCCC2)c(CN(c2cc(F)ccc2F)S(=O)(=O)c2ccc(Cl)cc2)c1` [Example 232, 4-Chloro-N-(2,5-difluorophenyl)-N-{5-methyl-2-[3-(1-piperidinyl)propoxy]benzyl}benzenesulfonamide hydrochloride]: the IC50 was 25 to 50 nM.

In the case of `O=S(=O)(c1ccc(Cl)cc1)N(Cc1ncccc1OCCCN1CCCCC1)c1cc(F)ccc1F` [Example 233, 4-Chloro-N-(2,5-difluorophenyl)-N-({3-[3-(1-piperidinyl)propoxy]-2-pyridinyl}methyl)benzenesulfonamide Hydrochloride], the IC50 was in the range of 25 to 50 nM.

Values taken from US6967196B1, “Sulfonamide compounds and uses thereof” (Bristol-Myers Squibb Company, priority 1999, dated 2005).
